# From patent publication US20230278972A1, “SUBSTITUTED HALOALKYL SULFONANILIDE HERBICIDES” (FMC Corporation, priority 2020, published 2023)
# Key:
# Assay type in all cases: in vivo
# [1] = system: blackgrass (Alopecurus myosuroides); experiment: Test A1 preemergence, blackgrass
# Description: (§1) Seeds of plant species selected from, blackgrass (Alopecurus myosuroides), corn (Zea mays), Foxtail, Giant (giant foxtail, Setaria faberi), goosegrass (Eleusine indica), kochia (Bassia scoparia), Oat, Wild (wild oat, Avena fatua), Pigweed, Palmer (palmer amaranth, palmer pigweed, Amaranthus palmeri), ragweed (common ragweed, Ambrosia artemisiifolia), Ryegrass, Italian (Italian ryegrass, Lolium multiflorum), soybean (Glycine max), and wheat (Triticum aestivum) were planted into a blend of loam soil and sand and treated preemergence with a directed soil spray using test chemicals formulated in a non-phytotoxic solvent mixture which included a surfactant. At the same time, plants selected from these crop and weed species and also galium (catchweed bedstraw, Galium aparine) and horseweed (Erigeron canadensis) were planted in pots containing the same blend of loam soil and sand and treated with postemergence applications of test chemicals formulated in the same manner. Plants ranged in height from 2 to 10 cm and were in the one- to two-leaf stage for the postemergence treatment. […] A dash (-) response means no test result.
# [2] = system: corn (Zea mays); experiment: Test A1 preemergence, corn
# Description: as §1
# [3] = system: Foxtail, Giant (giant foxtail, Setaria faberi); experiment: Test A1 preemergence, Foxtail, Giant
# Description: as §1
# [4] = system: goosegrass (Eleusine indica); experiment: Test A1 preemergence, goosegrass
# Description: as §1
# [5] = system: kochia (Bassia scoparia); experiment: Test A1 preemergence, kochia
# Description: as §1
# [6] = system: Oat, Wild (wild oat, Avena fatua); experiment: Test A1 preemergence, Oat, Wild
# Description: as §1
# [7] = system: Pigweed, Palmer (palmer amaranth, palmer pigweed, Amaranthus palmeri); experiment: Test A1 preemergence, Pigweed, Palmer
# Description: as §1
# [8] = system: ragweed (common ragweed, Ambrosia artemisiifolia); experiment: Test A1 preemergence, ragweed
# Description: as §1
# [9] = system: Ryegrass, Italian (Italian ryegrass, Lolium multiflorum); experiment: Test A1 preemergence, Ryegrass, Italian
# Description: as §1
# [10] = system: soybean (Glycine max); experiment: Test A1 preemergence, soybean
# Description: as §1
# [11] = system: wheat (Triticum aestivum); experiment: Test A1 preemergence, wheat
# Description: as §1
# [12] = system: blackgrass (Alopecurus myosuroides); experiment: Test A1 postemergence, blackgrass; details: Postemergence, 0 to 100 scale (0 no effect, 100 complete control)
# Description: as §1
# [13] = system: corn (Zea mays); experiment: Test A1 postemergence, corn; details: Postemergence
# Description: as §1
# [14] = system: Foxtail, Giant (giant foxtail, Setaria faberi); experiment: Test A1 postemergence, Foxtail, Giant; details: Postemergence
# Description: as §1
# [15] = system: goosegrass (Eleusine indica); experiment: Test A1 postemergence, goosegrass; details: Postemergence
# Description: as §1
# [16] = system: kochia (Bassia scoparia); experiment: Test A1 postemergence, kochia; details: Postemergence
# Description: as §1
# [17] = system: Oat, Wild (wild oat, Avena fatua); experiment: Test A1 postemergence, Oat, Wild; details: Postemergence
# Description: as §1
# [18] = system: Pigweed, Palmer (palmer amaranth, palmer pigweed, Amaranthus palmeri); experiment: Test A1 postemergence, Pigweed, Palmer; details: Postemergence
# Description: as §1
# [19] = system: ragweed (common ragweed, Ambrosia artemisiifolia); experiment: Test A1 postemergence, ragweed; details: Postemergence
# Description: as §1
# [20] = system: Ryegrass, Italian (Italian ryegrass, Lolium multiflorum); experiment: Test A1 postemergence, Ryegrass, Italian; details: Postemergence
# Description: as §1
# [21] = system: soybean (Glycine max); experiment: Test A1 postemergence, soybean; details: Postemergence
# Description: as §1
# [22] = system: wheat (Triticum aestivum); experiment: Test A1 postemergence, wheat; details: Postemergence
# Description: as §1
# [23] = system: galium (catchweed bedstraw, Galium aparine); experiment: Test A1 postemergence, galium; details: Postemergence
# Description: as §1
# [24] = system: barnyardgrass (Echinochloa crus-galli); experiment: Test B1 flooded paddy test, barnyardgrass; details: 250 g ai/ha, Flood, applied to paddy water, 2-leaf stage, visually evaluated after 10 to 14 days
# Description: (§2) A dash (-) response means no test result.
# [25] = system: ducksalad (Heteranthera limosa); experiment: Test B1 flooded paddy test, ducksalad; details: 250 g ai/ha, Flood, applied to paddy water, 2-leaf stage, visually evaluated after 10 to 14 days
# Description: as §2
# [26] = system: rice (Oryza sativa); experiment: Test B1 flooded paddy test, rice; details: 250 g ai/ha, Flood, applied to paddy water, 2-leaf stage, visually evaluated after 10 to 14 days
# Description: as §2
# [27] = 31 g ai/ha, 0 to 100 scale (0 no effect, 100 complete control)
# [28] = 125 g ai/ha, 0 to 100 scale, 0 no effect, 100 complete control
# [29] = 31 g ai/ha, 0 to 100 scale (0 no effect, 100 complete control), 10 days
structure (smiles),measurement,setting,value
CCC1ON=C(c2cc(NS(=O)(=O)C(F)(F)F)c(C)cc2C)C1CC (centres unmarked) [Compound 346],"Plant response rating, Blackgrass",[1]; [27],80
same,"Plant response rating, Blackgrass",[1]; [28],90
same,"Plant response rating, Corn",[2]; [27],10
same,"Plant response rating, Corn",[2]; [28],20
same,"Plant response rating, Foxtail, Giant",[3]; [27],60
same,"Plant response rating, Foxtail, Giant",[3]; [28],100
same,"Plant response rating, Goosegrass",[4]; [27],90
same,"Plant response rating, Goosegrass",[4]; [28],100
same,"Plant response rating, Kochia",[5]; [27],30
same,"Plant response rating, Kochia",[5]; [28],30
same,"Plant response rating, Oat, Wild",[6]; [27],30
same,"Plant response rating, Oat, Wild",[6]; [28],80
same,"Plant response rating, Pigweed, Palmer",[7]; [27],100
same,"Plant response rating, Pigweed, Palmer",[7]; [28],100
same,"Plant response rating, Ragweed",[8]; [27],0
same,"Plant response rating, Ragweed",[8]; [28],10
same,"Plant response rating, Ryegrass, Italian",[9]; [27],50
same,"Plant response rating, Ryegrass, Italian",[9]; [28],90
same,"Plant response rating, Soybean",[10]; [27],50
same,"Plant response rating, Soybean",[10]; [28],50
same,"Plant response rating, Wheat",[11]; [27],20
same,"Plant response rating, Wheat",[11]; [28],70
same,"Plant response rating, Blackgrass","[12]; 31 g ai/ha, 10 days",0
same,"Plant response rating, Blackgrass",[12]; 125 g ai/ha,60
same,"Plant response rating, Corn",[13]; [29],20
same,"Plant response rating, Corn","[13]; 125 g ai/ha, 0 to 100 scale",60
same,"Plant response rating, Foxtail, Giant",[14]; [29],30
same,"Plant response rating, Foxtail, Giant","[14]; 125 g ai/ha, 0 to 100 scale",50
same,"Plant response rating, Goosegrass",[15]; [29],40
same,"Plant response rating, Goosegrass","[15]; 125 g ai/ha, 0 to 100 scale",90
same,"Plant response rating, Kochia",[16]; [29],30
same,"Plant response rating, Kochia","[16]; 125 g ai/ha, 0 to 100 scale",60
same,"Plant response rating, Oat, Wild",[17]; [29],20
same,"Plant response rating, Oat, Wild","[17]; 125 g ai/ha, 0 to 100 scale",40
same,"Plant response rating, Pigweed, Palmer",[18]; [29],20
same,"Plant response rating, Pigweed, Palmer","[18]; 125 g ai/ha, 0 to 100 scale",50
same,"Plant response rating, Ragweed",[19]; [29],50
same,"Plant response rating, Ragweed","[19]; 125 g ai/ha, 0 to 100 scale",70
same,"Plant response rating, Ryegrass, Italian",[20]; [29],0
same,"Plant response rating, Ryegrass, Italian","[20]; 125 g ai/ha, 0 to 100 scale",80
same,"Plant response rating, Soybean",[21]; [29],30
same,"Plant response rating, Soybean","[21]; 125 g ai/ha, 0 to 100 scale",60
same,"Plant response rating, Wheat",[22]; [29],30
same,"Plant response rating, Wheat","[22]; 125 g ai/ha, 0 to 100 scale",70
same,"Plant response rating, Galium",[23]; [29],70
same,"Plant response rating, Galium","[23]; 125 g ai/ha, 0 to 100 scale",100
same,"Plant response rating, Barnyardgrass (0 to 100 scale, 0 is no effect, 100 is complete control)",[24],90
same,"Plant response rating, Ducksalad (0 to 100 scale, 0 is no effect, 100 is complete control)",[25],65
same,"Plant response rating, Rice (0 to 100 scale, 0 is no effect, 100 is complete control)",[26],15
CCC1ON=C(c2cc(N(C(=O)OCC(C)C)S(=O)(=O)C(F)(F)F)c(C)cc2C)C1CC (centres unmarked) [Compound 348],"Plant response rating, Blackgrass",[1]; [27],30
same,"Plant response rating, Blackgrass",[1]; [28],70
same,"Plant response rating, Corn",[2]; [27],0
same,"Plant response rating, Corn",[2]; [28],10
same,"Plant response rating, Foxtail, Giant",[3]; [27],30
same,"Plant response rating, Foxtail, Giant",[3]; [28],90
same,"Plant response rating, Goosegrass",[4]; [27],30
same,"Plant response rating, Goosegrass",[4]; [28],90
same,"Plant response rating, Kochia",[5]; [27],0
same,"Plant response rating, Kochia",[5]; [28],30
same,"Plant response rating, Oat, Wild",[6]; [27],0
same,"Plant response rating, Oat, Wild",[6]; [28],10
same,"Plant response rating, Pigweed, Palmer",[7]; [27],10
same,"Plant response rating, Pigweed, Palmer",[7]; [28],90
same,"Plant response rating, Ragweed",[8]; [27],0
same,"Plant response rating, Ragweed",[8]; [28],10
same,"Plant response rating, Ryegrass, Italian",[9]; [27],0
same,"Plant response rating, Ryegrass, Italian",[9]; [28],70
same,"Plant response rating, Soybean",[10]; [27],30
same,"Plant response rating, Soybean",[10]; [28],40
same,"Plant response rating, Wheat",[11]; [27],0
same,"Plant response rating, Wheat",[11]; [28],30
same,"Plant response rating, Blackgrass","[12]; 31 g ai/ha, 10 days",0
same,"Plant response rating, Blackgrass",[12]; 125 g ai/ha,90
same,"Plant response rating, Corn",[13]; [29],0
same,"Plant response rating, Corn","[13]; 125 g ai/ha, 0 to 100 scale",20
same,"Plant response rating, Foxtail, Giant",[14]; [29],20
same,"Plant response rating, Foxtail, Giant","[14]; 125 g ai/ha, 0 to 100 scale",30
same,"Plant response rating, Goosegrass",[15]; [29],0
same,"Plant response rating, Goosegrass","[15]; 125 g ai/ha, 0 to 100 scale",30
same,"Plant response rating, Kochia",[16]; [29],20
same,"Plant response rating, Kochia","[16]; 125 g ai/ha, 0 to 100 scale",70
same,"Plant response rating, Oat, Wild",[17]; [29],0
same,"Plant response rating, Oat, Wild","[17]; 125 g ai/ha, 0 to 100 scale",20
same,"Plant response rating, Pigweed, Palmer",[18]; [29],0
same,"Plant response rating, Pigweed, Palmer","[18]; 125 g ai/ha, 0 to 100 scale",70
same,"Plant response rating, Ragweed",[19]; [29],10
same,"Plant response rating, Ragweed","[19]; 125 g ai/ha, 0 to 100 scale",60
same,"Plant response rating, Ryegrass, Italian",[20]; [29],0
same,"Plant response rating, Ryegrass, Italian","[20]; 125 g ai/ha, 0 to 100 scale",40
same,"Plant response rating, Soybean",[21]; [29],50
same,"Plant response rating, Soybean","[21]; 125 g ai/ha, 0 to 100 scale",90
same,"Plant response rating, Wheat",[22]; [29],0
same,"Plant response rating, Wheat","[22]; 125 g ai/ha, 0 to 100 scale",60
same,"Plant response rating, Galium",[23]; [29],60
same,"Plant response rating, Galium","[23]; 125 g ai/ha, 0 to 100 scale",80
same,"Plant response rating, Barnyardgrass (0 to 100 scale, 0 is no effect, 100 is complete control)",[24],95
same,"Plant response rating, Ducksalad (0 to 100 scale, 0 is no effect, 100 is complete control)",[25],40
same,"Plant response rating, Rice (0 to 100 scale, 0 is no effect, 100 is complete control)",[26],0
